Legend:
[1] = tested on: lysine deacetylase activity in Golgi vesicles; experiment: Membrane deacetylase activity, in vitro deacetylation of acetylated BACE1-myc by Golgi vesicles; type: biochemical, Chinese Hamster; settings: vesicles from ceramide-treated cells, 0.2% Triton X-100, 30° C.
Text: (§1) Intact vesicles from the endoplasmic reticulum (ER) and the Golgi apparatus were purified on a 10-34% Iodixanol (OptiPrep; Axis-Shield, Norway) continuous gradient as described (Puglielli et al., 2001, Nat. Cell Biol. 3: 905-912). The complete migration of subcellular markers in a typical gradient is shown in Costantini et al., 2006, EMBO J. 25: 1997-2006; Puglielli et al., 2001, Nat. Cell Biol. 3: 905-912. Fractions enriched in ER and Golgi markers (also called ER or Golgi vesicles herein) were separated, pooled together, and resuspended in isotonic/cryogenic buffer (0.25 M sucrose and 10 mM Tris-HCl, pH 7.4) in the presence of protease inhibitors (Roche). Latency of ER and Golgi vesicles was determined with the glucose-6-phosphatase (Clairmont et al., 1992, J. Biol. Chem. 267: 3983-3900) and the sialyl-transferase (Puglielli and Hirschberg, 1999, J. Biol. Chem. 274: 35596-35600) methods, respectively. […]
BACE1 was eluted by lowering the pH to 2.0 and recovered by centrifuging at 3000 rpm for 2 min. […] BACE1 was then immunoprecipitated and counted on a liquid scintillation counter. […]
(§2) FIG. 6 illustrates how acetyltransferase and deacetylase activities exist in the lumen of ER and Golgi apparatus, respectively. […] The reaction was stopped by lowering the temperature; BACE1 was then purified again and analyzed on a scintillation liquid counter. […]

[2] = tested on: acetyl-CoA:lysine acetyltransferase activity in ER vesicles; experiment: Membrane acetyltransferase activity, in vitro acetylation of BACE1-myc by ER vesicles; type: biochemical, Chinese Hamster; settings: vesicles from control or ceramide-treated cells, 0.2% Triton X-100, 30° C.
Text: as §1
The reaction was stopped by adding 200 μl of ice-cold buffer and immediate immersion in ice; BACE1 was then immunoprecipitated and counted on a liquid scintillation counter. […]
as §2

BACE1 = experiment: Pulse-chase half-life of BACE1; type: cell-based, human; settings: following ceramide treatment; ~16 hours without
Method: Confluent cells were starved for 1 hr in Met/Cys free medium, labeled with 100 μCi [^35S]-Met/Cys (Trans35S-Label, >1000 Ci/mmol; Pierce) in starvation medium/dish and chased for 8, 16, and 24 hours with DMEM supplemented with 5 mM cold Met/Cys. Cell extracts were pre-cleared with BioMag Protein A (Polysciences, Inc.). Beads were used at the concentration of 15 μl of the slurry per sample and separated with a magnetic holder. BACE1 was then immunoprecipitated with anti-BACE1 antibodies and recovered with BioMag Protein A as above. The immunoprecipitate-bead complexes were washed 3 times and boiled in sample buffer. Beads were then separated and the samples were analyzed by reducing SDS-PAGE (on a 4-12% Bis-Tris NuPAGE system) and autoradiography.
FIG. 3 illustrates how transient lysine acetylation controls both translocation along the secretory pathway and molecular stability of the nascent BACE1 protein. […] Immunoprecipitates were analyzed by SDS-PAGE and autoradiography. […] BACE1 was then immunoprecipitated as above and analyzed by reducing SDS-PAGE and autoradiography. Results are expressed as percentage of total newly-synthesized BACE1. […] BACE1 was immunoprecipitated from total cell lysates and analyzed by SDS-PAGE and autoradiography. The half-life of BACE1 from five different readings is shown in FIG. 3(C), whereas a representative radiogram is shown in FIG. 3(D). […]

in vitro deacetylation of BACE1 by Golgi vesicles [1]: increased deacetylation
in vitro acetylation of BACE1 by ER membrane vesicles [2]: no apparent difference
SMILES: CCCCCCCCCCCCC/C=C/[C@@H](O)[C@H](CO)NC(=O)CCCCC [ceramide, C6-ceramide]
half-life of native BACE1 (BACE1): ~24 h

Source: US20090042993A1, “IDENTIFICATION OF NOVEL POST-TRANSLATIONAL PROTEIN MODIFICATIONS” (priority 2007, published 2009)
